The results in this text go back to patent US11857618B2 (priority 2020, dated 2024).

For this experiment, the system named is phosphorylation of IRF3 in HeLa cells. It is filed as cell-based.

SMILES strings stand for the structures.

As for `Nc1nc(=O)c2ncn([C@@H]3O[C@@H]4COP(=O)(O)O[C@H]5[C@@H](O)[C@H](n6cnc7c(N)ncnc76)O[C@@H]5COP(=O)(O)O[C@@H]3[C@@H]4O)c2[nH]1` [cGAMP, 2′,3′-cGAMP (cyclic [G(2′,5′)pA(3′,5′)p])], the “pIRF3 levels (band normalized to actin) as compared to untreated control” value is listed as “up to 3 fold”.
